In US8440637B2, “Combination treatment for the treatment of hepatitis C virus infection” (priority 2007, dated 2013):
Entries after “also recorded” stand apart in the source; their conditions may differ. Strand notation (5' to 3'): a small letter for the sugar, then the base; units joined by * are phosphorothioate-linked, units joined directly phosphodiester-linked; [ ] holds rarer units or linkages, { } end groups; capitals alone tell only the bases. l = locked nucleic acid (LNA); [5mC] = 5-methylcytosine; d = 2'-deoxy (DNA)

What was measured:
[1] = system: miR-122a; experiment: miR-122a levels in mouse liver by microRNA specific qPCR; format: in vivo
Description: Total RNA was extracted from liver samples as described above and analysed for miR-122a levels by microRNA specific QPCR.
In vivo study: Ten groups of animals (female C57/BL6; 3 mice per group) were treated in the following manner. Group 1 animals were injected with 0.2 ml saline by i.p. on day 0, day 2 and day 4. Groups 2-10 were dosed by i.p. with three different conc. (25 mg/kg, 5 mg/kg and 1 mg/kg) of either LNA antimiR-122a/SEQ ID NO: 61 (group 2-4), LNA antimir-122a/SEQ ID NO: 66 (group 5-7) or LNA antimir-122a/SEQ ID NO: 63 (group 8-10); the LNA antimir-122a sequences are given in the Table 1. All three LNA antimiR-122a oligonucleotides target the liver-specific miR-122a. The doses were calculated from the Day 0 body weights of each animal.
The animals were sacrificed 48 hours after last dose (Day 6), retro-orbital blood was collected in tubes containing EDTA and the plasma fraction harvested and stored frozen −80° C. for cholesterol analysis. At sacrifice livers were dissected and one portion was cut into 5 mm cubes and immersed in 5 volumes of ice-cold RNAlater. A second portion was snap frozen in liquid nitrogen and stored for cryo-sectioning.
Total RNA was extracted from liver samples using Trizol reagent according to the manufacturer's recommendations (Invitrogen, USA) and analysed for miR-122a levels by microRNA-specific QPCR according to the manufacturer's recommendations (Ambion, USA). […]
(§1) NMRI female mice were treated with indicated doses of LNA-antimiR (SEQ ID NO: 61) along with a mismatch control (m, SEQ ID NO: 65), saline and antagomir (SPC3595) for three consecutive days and sacrificed 24 hours after last dose (as in example 11 “old design”, n=5). miR-122 levels were analyzed by qPCR and normalized to the saline treated group.
C57BL/6J female mice were fed on high fat diet for 13 weeks before the initiation of the SEQ ID NO: 63 treatment. […] Both hypercholesterolemic and normal mice were treated i.p. twice weekly with 5 mg/kg SEQ ID NO: 63 and the corresponding mismatch control for a study period of 5½ weeks. Blood samples were collected weekly and total plasma cholesterol was measured during the entire course of the study. Upon sacrificing the mice, liver and blood samples were prepared for total RNA extraction, miRNA and mRNA quantification, assessment of the serum transaminase levels, and liver histology.
The miR-122 and let-7a microRNA levels were quantified with TaqMan microRNA Assay (Applied Biosystems) following the manufacturer's instructions. The RT reaction was diluted ten times in water and subsequently used for real time PCR amplification according to the manufacturer's instructions. A two-fold cDNA dilution series from liver total RNA of a saline-treated animal or mock transfected cells cDNA reaction (using 2.5 times more total RNA than in samples) served as standard to ensure a linear range (Ct versus relative copy number) of the amplification. Applied Biosystems 7500 or 7900 real-time PCR instrument was used for amplification.

[2] = system: miR-122a target genes (Bckdk, aldolase A, Nrdg3, CD320, Vldlr); experiment: miR-122a target mRNA levels in mouse liver by qPCR; format: in vivo; conditions: for upregulation of miR-122a target genes Bckdk and AldoA (in words) / Bckdk and AldoA mRNA levels compared to SEQ ID NO: 61 treated mice (in words): liver, 48 hours after last dose (Day 6)
Description: The saline control and different LNA-antimiR-122a treated animals were sacrificed 48 hours after last dose (Day 6), and total RNA was extracted from liver samples as using Trizol reagent according to the manufacturer's recommendations (Invitrogen, USA). The mRNA levels were assessed by real-time quantitative RT-PCR for two miR-122a target genes, Bckdk (branched chain ketoacid dehydrogenase kinase, ENSMUSG00000030802) and aldolase A (aldoA, ENSMUSG00000030695), respectively, as well as for GAPDH as control, using Taqman assays according to the manufacturer's instructions (Applied biosystems, USA).
NMRI mice were administered intravenously with SEQ ID NO: 61 SEQ ID NO: 61 using daily doses ranging from 2.5 to 25 mg/kg for three consecutive days. Animals were sacrificed 24 hours, 1, 2 or 3 weeks after last dose. Livers were harvested divided into pieces and submerged in RNAlater (Ambion) or snap-frozen. RNA was extracted with Trizol reagent according to the manufacturer's instructions (Invitrogen) from the RNAlater tissue, except that the precipitated RNA was washed in 80% ethanol and not vortexed. The RNA was used for mRNA TaqMan qPCR according to manufacturer (Applied biosystems) or northern blot (see below). The snap-frozen pieces were cryo-sectioned for in situ hybridizations.
Mice were treated with different SEQ ID NO: 61 SEQ ID NO: 61 doses for three consecutive days, as described above and sacrificed 24 hours after last dose. Total RNA extracted from liver was subjected to qPCR. […] Total liver RNA from 2 to 3 mice per group sacrificed 24 hours after last dose were subjected to qPCR for the indicated genes. Shown in FIG. 9 is mRNA levels relative to Saline group, n=2-3 (2.5-12.5 mg/kg/day: n=2, no SD). Shown is also the mismatch control (m, SEQ ID NO: 65).
Assayed genes: Nrdg3 Aldo A, Bckdk, CD320 with predicted miR-122 target site.
NMRI female mice were treated with 25 mg/kg/day SEQ ID NO: 61SEQ ID NO: 61 along with saline control for three consecutive days and sacrificed 1, 2 or 3 weeks after last dose, respectively. RNA was extracted from livers and mRNA levels of predicted miR-122a target mRNAs, selected by microarray data were investigated by qPCR. Three animals from each group were analysed.
mRNA levels are normalized to the individual GAPDH levels and to the mean of the Saline treated group at each individual time point. Included are also the values from the animals sacrificed 24 hours after last dose. Shown is mean and standard deviation, n=3 (24 h n=3)
The same liver RNA samples as in previous example were investigated for Vldlr induction.
as §1
mRNA quantification of selected genes was done using standard Tag Man assays (Applied Biosystems). The reverse transcription reaction was carried out with random decamers, 0.5 μg total RNA, and the M-MLV RT enzyme from Ambion according to a standard protocol. First strand cDNA was subsequently diluted 10 times in nuclease-free water before addition to the RT-PCR reaction mixture. A two-fold cDNA dilution series from liver total RNA of a saline-treated animal or mock transfected cells cDNA reaction (using 2.5 times more total RNA than in samples) served as standard to ensure a linear range (Ct versus relative copy number) of the amplification. Applied Biosystems 7500 or 7900 real-time PCR instrument was used for amplification.

[3] = i.p. on day 0, 2 and 4 at 25, 5 and 1 mg/kg, 48 hours after last dose

**Q.** Which results are given for “5′-ccAttGtcAcaCtcCa-3′ (antisense CCATTGTCACACTCCA; sugars from the 5' end ddlddlddlddlddld, backbone and methylation of C not given here) [SEQ ID NO: 61]”?
**A.** miR-122a inhibition (in words) ([1]; 25 mg/kg i.v. on 3 successive days, Day 16): inhibition could still be detected; miR-122a levels (in words) ([1]; 25 mg/kg i.v. on 3 successive days, Day 23): approached those of the saline group; miR-122a inhibition compared to saline control (in words) ([1]; 25 mg/kg i.v. on 3 successive days, sacrifice Day 9, 16 or 23): two-fold inhibition; IC50, miR-122a levels in liver ([1]; i.v. on 3 successive days, 2.5-25 mg/kg, 24 hour after last dose): 3 to 5 mg/kg; reduction of miR-122 levels ([1]; one week after last LNA dose): 50%; Vldlr induction in liver (in words) ([2]; 25 mg/kg/day for three consecutive days, 1, 2 or 3 weeks after last dose): transient up-regulation; mRNA levels of predicted miR-122a target mRNAs over time (in words) ([2]; NMRI female mice, 25 mg/kg/day for three consecutive days, 1, 2 or 3 weeks after last dose): transient induction followed by a restoration of normal expression levels; de-repression of miR-122 target mRNAs (AldoA, Bckdk, CD320, Nrdg3) (in words) ([2]; NMRI female mice, three consecutive days, 24 hours after last dose, compared to antagomir treated mice, listed as LNA-antimiR): dose-dependent de-repression; also recorded: consistently higher; induction of miR-122a target genes (Nrdg3, Aldo A, Bckdk, CD320) (in words) ([2]; different doses for three consecutive days, 24 hours after last dose): clear dose-dependent induction; upregulation of miR-122a target genes Bckdk and AldoA (in words) [2]: clear dose-dependent upregulation

**Q.** What does the source list for “5′-CcAttGTcaCaCtCC-3′ (antisense CCATTGTCACACTCC; sugars from the 5' end ldlddllddldldll, backbone and methylation of C not given here) [SEQ ID NO: 63]”?
**A.** IC50, miR-122a silencing in liver ([1]; female C57/BL6, i.p. on day 0, 2 and 4 at 25, 5 and 1 mg/kg, 48 hours after last dose): ~1 mg/kg; miR-122 levels in liver after long-term treatment (in words) ([1]; hypercholesterolemic and normal mice, 5 mg/kg i.p. twice weekly for 5½ weeks): comparable profile in both hypercholesterolemic and normal mice; efficacy in vivo in miR-122a silencing compared to SEQ ID NO: 61 (in words) [1, 3]: most potent; Bckdk and AldoA mRNA levels compared to SEQ ID NO: 61 treated mice (in words) [2]: significantly higher; upregulation of miR-122a target genes Bckdk and AldoA (in words) [2]: clear dose-dependent upregulation

**Q.** “5′-AttGTcaCaCtCC-3′ (antisense lA*dT*dT*lG*lT*dC*dA*l[5mC]*dA*l[5mC]*dT*l[5mC]*l[5mC]) [SEQ ID NO: 66]” was tested. Which “efficacy in vivo in miR-122a silencing compared to SEQ ID NO: 61 (in words)” value [1, 3] did it give?
**A.** significantly improved efficacy in vivo

**Q.** And the “Bckdk and AldoA mRNA levels compared to SEQ ID NO: 61 treated mice (in words)” value [2]?
**A.** significantly higher

**Q.** And the “upregulation of miR-122a target genes Bckdk and AldoA (in words)” value [2]?
**A.** clear dose-dependent upregulation
